In patent US10975013B2, “Method for producing vanillin” (T. HASEGAWA CO., LTD., priority 2018, dated 2021):

Key:
Type in all cases: physicochemical
[1] = Solubility of vanillin in various solvents at 25° C.
[2] = Solubility of vanillin in solvent-heptane mixed solvents (1:1) at 25° C.
[3] = Solubility of vanillin in dibutyl maleate-solvent mixed solvents (1:1) at 25° C.

SMILES: COc1cc(C=O)ccc1O [vanillin]
- Solubility (mass %) of vanillin at 25° C. ([1]; solvent 1-Chlorotetradecane): 0.4% mass %
- Solubility (mass %) of vanillin at 25° C. ([1]; solvent Benzyl benzoate): 6.6% mass %
- Solubility (mass %) of vanillin at 25° C. ([1]; solvent Dibenzyl ether): 5.5% mass %
- Solubility (mass %) of vanillin at 25° C. ([1]; solvent Dibutyl adipate): 10.9% mass %
- Solubility (mass %) of vanillin at 25° C. ([1]; solvent Dibutyl fumarate): 9.2% mass %
- Solubility (mass %) of vanillin at 25° C. ([1]; solvent Dibutyl maleate): 11.3% mass %
- Solubility (mass %) of vanillin at 25° C. ([1]; solvent Dibutyl succinate): 15.4% mass %
- Solubility (mass %) of vanillin at 25° C. ([1]; solvent Diethyl phthalate): 14.8% mass %
- Solubility (mass %) of vanillin at 25° C. ([1]; solvent Diethyl sebacate): 13.6% mass %
- Solubility (mass %) of vanillin at 25° C. ([1]; solvent Diisobutyl adipate): 7.7% mass %
- Solubility (mass %) of vanillin at 25° C. ([1]; solvent Ethyl laurate): 3.1% mass %
- Solubility (mass %) of vanillin at 25° C. ([1]; solvent Isopropyl myristate): 2.0% mass %
- Solubility (mass %) of vanillin at 25° C. ([1]; solvent Tetraglyme): 31.3% mass %
- Solubility (mass %) of vanillin at 25° C. ([1]; solvent Tripropionin): 18.1% mass %
- Solubility (mass %) of vanillin at 25° C. ([1]; solvent n-Pentadecane): 0.05% mass %
- Solubility (mass %) of vanillin at 25° C. ([1]; solvent γ-Undecalactone): 16.2% mass %
- Solubility (mass %) of vanillin at 25° C. ([1]; solvent δ-Decalactone): 17.4% mass %
- Solubility (mass %) of vanillin in solvent-heptane mixed solvent (1:1) at 25° C. ([2]; Benzyl benzoate-heptane (1:1)): 1.2% mass %
- Solubility (mass %) of vanillin in solvent-heptane mixed solvent (1:1) at 25° C. ([2]; Dibenzyl ether-heptane (1:1)): 0.9% mass %
- Solubility (mass %) of vanillin in solvent-heptane mixed solvent (1:1) at 25° C. ([2]; Dibutyl adipate-heptane (1:1)): 1.4% mass %
- Solubility (mass %) of vanillin in solvent-heptane mixed solvent (1:1) at 25° C. ([2]; Dibutyl fumarate-heptane (1:1)): 1.0% mass %
- Solubility (mass %) of vanillin in solvent-heptane mixed solvent (1:1) at 25° C. ([2]; Dibutyl succinate-heptane (1:1)): 1.7% mass %
- Solubility (mass %) of vanillin in solvent-heptane mixed solvent (1:1) at 25° C. ([2]; Diethyl phthalate-heptane (1:1)): Oiling out
- Solubility (mass %) of vanillin in solvent-heptane mixed solvent (1:1) at 25° C. ([2]; Diethyl sebacate-heptane (1:1)): 1.6% mass %
- Solubility (mass %) of vanillin in solvent-heptane mixed solvent (1:1) at 25° C. ([2]; Diisobutyl adipate-heptane (1:1)): 1.4% mass %
- Solubility (mass %) of vanillin in solvent-heptane mixed solvent (1:1) at 25° C. ([2]; Ethyl laurate-heptane (1:1)): 0.6% mass %
- Solubility (mass %) of vanillin in solvent-heptane mixed solvent (1:1) at 25° C. ([2]; Isopropyl myristate-heptane (1:1)): 0.3% mass %
- Solubility (mass %) of vanillin in solvent-heptane mixed solvent (1:1) at 25° C. ([2]; Tetraglyme-heptane (1:1)): Oiling out
- Solubility (mass %) of vanillin in solvent-heptane mixed solvent (1:1) at 25° C. ([2]; Tripropionin-heptane (1:1)): Oiling out
- Solubility (mass %) of vanillin in solvent-heptane mixed solvent (1:1) at 25° C. ([2]; dibutyl maleate-Heptane (1:1)): 1.7% mass %
- Solubility (mass %) of vanillin in solvent-heptane mixed solvent (1:1) at 25° C. ([2]; γ-Undecalactone-heptane (1:1)): 3.6% mass %
- Solubility (mass %) of vanillin in solvent-heptane mixed solvent (1:1) at 25° C. ([2]; δ-Decalactone-heptane (1:1)): Oiling out
- Solubility (mass %) of vanillin in dibutyl maleate-solvent mixed solvent (1:1) at 25° C. ([3]; dibutyl maleate-Cyclohexane (1:1)): 2.1% mass %
- Solubility (mass %) of vanillin in dibutyl maleate-solvent mixed solvent (1:1) at 25° C. ([3]; dibutyl maleate-Heptane (1:1)): 1.7% mass %
- Solubility (mass %) of vanillin in dibutyl maleate-solvent mixed solvent (1:1) at 25° C. ([3]; dibutyl maleate-Hexane (1:1)): 1.7% mass %
- Solubility (mass %) of vanillin in dibutyl maleate-solvent mixed solvent (1:1) at 25° C. ([3]; dibutyl maleate-Isooctane (1:1)): 1.8% mass %
- Solubility (mass %) of vanillin in dibutyl maleate-solvent mixed solvent (1:1) at 25° C. ([3]; dibutyl maleate-Petroleum ether (1:1)): 1.6% mass %
- Solubility (mass %) of vanillin in dibutyl maleate-solvent mixed solvent (1:1) at 25° C. ([3]; dibutyl maleate-Toluene (1:1)): 5.5% mass %
